Assay results as given in patent US8778342B2, “Antibody therapy” (Immunomedics, Inc., priority 2002, dated 2014).
“Also recorded” adds a separate entry of the source.

Columns and labels:
TT MTC xenografts = assay: Chemotherapy of TT MTC xenografts in nude mice; type: in vivo, human; details: for growth inhibition of TT xenografts, drug given individually: doses of FIG. 3; for Mean survival time: untreated control 4 weeks
TT tumors = assay: Naked anti-CEA MAb alone on growth of TT tumors in nude mice; details: for tumors less than 0.5 cm^3: at day-37, 0.5 mg/mouse weekly x4, untreated 40%
[1] = test system: GW-39 human colorectal tumors; assay: Survival in GW-39 intrapulmonary micrometastasis model in nude mice; details: for increase of median survival time: FIG. 18, single agent versus untreated
[2] = test system: TT (human medullary thyroid) tumor cells; type: in vivo; details: DTIC 75 μg/dose days 2, 3, 4, hMN-14 100 μg/dose from day 2; for mice with no palpable tumor at 7 weeks: 10 mice/group
TT cells = assay: Flow cytometry reactivity with TT cells
meconium antigen = details: Hansen et al., Cancer 71:3478 (1993); cited from earlier work
CEA = molecular target: T1, CEA (Homo sapiens, UniProt P06731); details: Hansen et al., Cancer 71:3478 (1993); cited from earlier work
T1 sequence (P06731 35-676): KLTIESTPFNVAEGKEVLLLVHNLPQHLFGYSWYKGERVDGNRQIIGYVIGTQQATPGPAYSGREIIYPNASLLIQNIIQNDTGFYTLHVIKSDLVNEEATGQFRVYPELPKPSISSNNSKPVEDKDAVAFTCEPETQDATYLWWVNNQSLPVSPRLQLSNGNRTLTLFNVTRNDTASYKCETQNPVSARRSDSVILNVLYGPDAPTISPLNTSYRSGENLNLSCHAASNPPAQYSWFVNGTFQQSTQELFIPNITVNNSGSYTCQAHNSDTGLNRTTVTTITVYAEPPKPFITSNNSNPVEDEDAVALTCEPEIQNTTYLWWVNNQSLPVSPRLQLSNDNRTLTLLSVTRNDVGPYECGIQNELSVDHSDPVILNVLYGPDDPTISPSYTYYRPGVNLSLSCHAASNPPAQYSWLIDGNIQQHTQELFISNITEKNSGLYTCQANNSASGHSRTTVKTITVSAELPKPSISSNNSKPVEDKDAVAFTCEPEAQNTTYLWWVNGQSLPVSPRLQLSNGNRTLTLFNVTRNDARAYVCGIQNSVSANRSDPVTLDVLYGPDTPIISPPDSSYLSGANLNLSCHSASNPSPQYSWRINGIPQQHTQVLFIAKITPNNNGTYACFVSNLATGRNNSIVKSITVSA

[3] = molecular target: T2, normal cross reactive antigen, NCA (Homo sapiens, UniProt P40199); details: Hansen et al., Cancer 71:3478 (1993); cited from earlier work
T2 sequence (P40199 35-320): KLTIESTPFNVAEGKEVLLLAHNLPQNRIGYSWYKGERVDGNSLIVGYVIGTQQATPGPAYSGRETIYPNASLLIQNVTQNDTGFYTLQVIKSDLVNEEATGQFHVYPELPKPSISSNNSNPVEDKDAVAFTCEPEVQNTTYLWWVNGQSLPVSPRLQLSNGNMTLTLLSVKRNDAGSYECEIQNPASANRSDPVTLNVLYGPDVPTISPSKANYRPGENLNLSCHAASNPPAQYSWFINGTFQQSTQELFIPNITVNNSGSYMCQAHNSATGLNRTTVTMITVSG

[4] = FIG. 16 advanced colon cancer model, single agents

CC[C@]1(O)C[C@H]2CN(CCc3c([nH]c4ccccc34)[C@@](C(=O)OC)(c3cc4c(cc3OC)N(C=O)[C@H]3[C@@](O)(C(=O)OC)[C@H](OC(C)=O)[C@]5(CC)C=CCN6CC[C@]43[C@@H]65)C2)C1 [vincristine]
growth inhibition of TT xenografts, drug given individually (TT MTC xenografts): not

COc1cccc2c1C(=O)c1c(O)c3c(c(O)c1C2=O)C[C@@](O)(C(=O)CO)C[C@@H]3O[C@H]1C[C@H](N)[C@H](O)[C@H](C)O1 [doxorubicin]
growth inhibition of TT xenografts, drug given individually (TT MTC xenografts): significant growth inhibition

hLL2: negative control humanized MAb, anti-CD22 [reference compound]
tumors less than 0.5 cm^3 (TT tumors): 29%

hMN-14: humanized (CDR-grafted) Class III anti-CEA monoclonal antibody MN-14, naked
mean tumor sizes versus untreated animals (TT tumors; 0.5 mg single i.v. injection eleven days post tumor cell injection): no significant differences
tumor growth versus untreated group (TT tumors; 0.5 mg single i.v. injection on day-1 post tumor injection): significant growth delay
inhibition of tumor size compared to the untreated animals (TT tumors; 0.5 mg single i.v. injection one day post tumor cell injection, between day-32 and day-60): 64-70%
tumors less than 0.5 cm^3 (TT tumors): 87%
effect on survival [1, 4]: No effect
effect on survival ([1]; FIG. 17 reduced tumor burden model, 5% tumor cell suspension): no apparent effect
increase of median survival time ([1]; 5% tumor cell suspension): 21%
efficacy on high (interferon-gamma induced) versus low CEA-expressing tumor cells ([1]; FIG. 21): improved efficacy
Mean tumor volumes at 7 weeks [2]: 0.899±0.545 cm^3
mice with no palpable tumor at 7 weeks [2]: 0/10
delay / inhibition of tumor growth ([2]; nude mice): Significant delays in tumor growth; also recorded: significant effect on inhibiting tumor growth

CCc1c2c(nc3ccc(OC(=O)N4CCC(N5CCCCC5)CC4)cc13)-c1cc3c(c(=O)n1C2)COC(=O)[C@]3(O)CC [CPT-11, irinotecan]
median survival time ([1]; 10% GW-39 cell suspension, treatment from day 0, CPT-11 10% MTD (80 μg/d x 5 days), hMN14 100 μg/d, untreated 56 days): 63 days
median survival ([1]; FIG. 16 advanced colon cancer model, hMN-14 100 μg/day from day 0, CPT-11 60 μg/day over 5 days): 63 days
effect on survival [1, 4]: only a modest effect
median survival time ([1]; FIG. 17 reduced tumor burden model, 5% tumor cell suspension, dosages of Example 14): 70 days
increase of median survival time ([1]; 5% tumor cell suspension): 76%
median survival ([1]; pretreatment study, CPT-11 on day 0, alone or co-treatment with hMN-14, untreated 35 days): 63 days
median survival ([1]; pretreatment study, CPT-11 on day 3, alone or after 3-day pretreatment with hMN-14, untreated 35 days): 70 days

CN(C)/N=N/c1[nH]cnc1C(N)=O [DTIC, dacarbazine, reference compound]
Mean tumor volumes at 7 weeks [2]: 0.284 ± 0.197 cm^3
mice with no palpable tumor at 7 weeks [2]: 1/10
Mean survival time (TT MTC xenografts): 11 weeks

O=P1(N(CCCl)CCCl)NCCCO1 (stereo not shown) [cyclophosphamide]
growth inhibition of TT xenografts, drug given individually (TT MTC xenografts): significant growth inhibition
Log rank analysis of survival versus the untreated group (TT MTC xenografts; individual drugs): significant difference
Mean survival time (TT MTC xenografts): 8 weeks

B1: murine MN-14: murine Class III anti-CEA MAb, reacting with CEA, unreactive with NCA and meconium antigen (antibody, listed as Mus sp., V domains shown)
VH: EVKLLESGGGLVQSGGSLKLSCAASGFDFTTYWMSWVRQAPGKGLEWIGEIHPDSSTINYAPSLKDKFIVSRDNAKNTLYLQMSKVRSEDTALYYCASLYFGFPWFAYWGQGTPVTVSA
VL: EIQLTQSHKMMSTSVGDRVSITCKASQDVGTSVAWYQQRPGQSPKLLIYWTSTRHTGVPDRFTGSVSGTDFTLTITNVQSEDLADYFCQQYSLYRSFGGGTKLEIK
modifications: constant regions
reactivity with TT cells by flow cytometry (TT cells): react with TT cells
reactivity with meconium antigen (meconium antigen): unreactive
reactivity with CEA (CEA): reacting with CEA
reactivity with NCA [3]: unreactive
